Measurements reported in US9334280B2, “Synthetic rigidin analogues as anticancer agents, salts, solvates and prodrugs thereof, and method of producing same” (New Mexico Technical Research Foundation, priority 2012, dated 2016).

Assays:
[1] = test system: HeLa cervical adenocarcinoma cells; assay: MTT antiproliferative assay, HeLa; format: cell-based; conditions: Homo sapiens, Table 1, 48 h treatment, MTT, ± SD, read-out: GI50 in vitro Values, HeLa
Method in brief: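 Cells were seeded at 4×10^3 per well, grown 24 h, then treated at 0.04–100 μM for 48 h; HeLa in DMEM and MCF-7 in RPMI, each with 10% FBS. MTT for 2 h, formazan dissolved in DMSO, A490 read; quadruplicate, at least two repeats, 0.1% DMSO vehicle control and 1 μM phenyl arsine oxide as positive killing control.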

[2] = test system: UM-SCC10B head and neck metastases cells; assay: MTT antiproliferative assay, UM-SCC10B; format: cell-based; conditions: Table 1A, 48 h, read-out: Concentration required to reduce the viability of cells by 50%, UM-SCC10B
Description: (§1) To evaluate antiproliferative properties of the compounds of Formula I, mitochondrial dehydrogenase activities were measured using the MTT assay. The cell lines were prepared by trypsinizing and seeding […] cells per well into microplates. All compounds were reconstituted in dimethyl sulfoxide (DMSO) at a concentration of either 100 mM or 25 mM prior to treatment. The cells were grown for 24 hrs before treatment at concentrations ranging from 0.004 to 100 microM and incubated for 48 hrs in 200 microL media. 20 microL of MTT reagent in serum free medium (5 mg/mL) was added to each well and incubated further for 2 hrs. Media was removed and the resulting formazan crystals were re-solubilized in 100 microL of DMSO and the optical density (OD) was measured using a Thermomax Molecular Device plate reader at a wavelength of 490 nm. The experiments were performed in quadruplicate and repeated at least twice for each compound per cell line. Cells treated with 0.1% DMSO were used as a negative control, while phenyl arsine oxide (PAO) was used as a positive killing control.

[3] = test system: UM-SCC22B head and neck metastases cells; assay: MTT antiproliferative assay, UM-SCC22B; format: cell-based; conditions: Homo sapiens, UMSCC22B, Table 1A, 48 h, read-out: Concentration required to reduce the viability of cells by 50%, UM-SCC22B
Description: as §1

[4] = test system: Hs683 anaplastic oligodendroglioma cells; assay: MTT antiproliferative assay, Hs683; format: cell-based; conditions: Homo sapiens, Hs 683, Table 2, 48 h, read-out: GI50 in vitro values, Hs683
Description: as §1

B16F10 melanoma cells = assay: MTT antiproliferative assay, B16F10; format: cell-based; conditions: Mus musculus, B16-F10, Table 2, 48 h, read-out: GI50 in vitro values, B16F10
Description: as §1

[5] = test system: MES-SA/Dx5 uterine sarcoma cells (overexpress p-gp); assay: MTT antiproliferative assay, MDR MES-SA/Dx5; format: cell-based, human
Description: Human T-cell leukemia cell line Jurkat (ATCC TIB-152, E6-1 clone) was cultured in RPMI-1640 (Invitrogen) supplemented with 10% FBS (Invitrogen), 100 mg/L penicillin G, 100 mg/L streptomycin, 1.0 mM sodium pyruvate, 1.5 g/L sodium bicarbonate, and 4.5 g/L glucose (all from Sigma). Human cervical cancer cell line HeLa (ATCC S3) was cultured in DMEM (Invitrogen) supplemented with 10% FBS, 100 mg/L penicillin G, and 100 mg/L streptomycin. MCF-7 (human mammary carcinoma) cells were cultured in DMEM supplemented with 1.0 mM sodium pyruvate, 1% GlutaMax™-1 (Invitrogen), 100 μg/mL penicillin, 100 μg/mL streptomycin, and 10% FBS. Human uterine sarcoma MES-SA and MES-SA/Dx5 cells were cultured in RPMI-1640 medium supplemented with 10% FBS, 100 mg/L penicillin G and 100 mg/L streptomycin. All cells were incubated at 37° C. in a humidified atmosphere with 5% CO2. The other cell lines were maintained in a similar fashion as previously described.
as §1
The cells of such tumors are referred to as multidrug resistant (MDR). Thus, we assessed the compounds of Formula I for antiproliferative activity in an MDR cancer cell line. This was done using the uterine sarcoma cells, MES-SA/Dx5, which overexpress p-gp. The parental drug-responsive MES-SA cell line was used as control.

In the case of `O=C(c1ccccc1)c1[nH]c2[nH]cnc(=O)c2c1-c1cc(Br)cc(Br)c1` [Rig8, 6-Benzoyl-5-(3,5-dibromophenyl)-1H-pyrrolo[2,3-d]pyrimidin-4(7H)-one], the GI50 [1] is reported as 95 ± 40 nM, the IC50 [2] is reported as 100 nM and the IC50 [3] is reported as 20 nM. It also gave a GI50 [4] of 20 nM, a GI50 (B16F10 melanoma cells) of 50 nM and a GI50 ([5]; Homo sapiens, MES-SA/Dx5, Table 3, MDR cell line, read-out: GI50 in vitro Values, MES-SA/Dx5) of 394 ± 10 nM. The “variation in the sensitivities of the parental and MDR cell lines” value ([5]; MES-SA/Dx5 vs MES-SA, in words) was “only a small variation”.
